This note sets out measurements from US7511173B2, “Creatine salt with enhanced nutritional and therapeutic efficacy and compositions containing same” (Iovate T & P Inc., priority 2004, dated 2009).

Common to all, as to assay type: physicochemical
One data set can be described thus: pH of aqueous solution. To be noted: c = 1% in water.
The nature of another data set: hygroscopicity.
The nature of data set [1]: stability in aqueous solution (titer, degradation into creatinine). To be noted: solution of about 15 mg/ml (1.5%), after 10 days at room temperature.

Consider `CN(CC(=O)O)C(=N)N.NCC(=O)O` [creatine glycinate], for which the pH in “pH of aqueous solution” is recorded as 6; c = 1% in water. Also, the hygroscopicity result in the data set “hygroscopicity” is “non-hygroscopic”.

Turning to citrate, the “titer drop in aqueous solution” value in data set [1] is recorded as “about 50%”.
